Source: patent publication US6489351B1, “Condensed 4,5,6,7-tetrahydrobenzo[C]thiophenes as enhancer for cell differentation induction factor action” (Takeda Chemical Industries, Ltd., priority 1996, dated 2002)

Experiments:
[1] = tested on: Chondrocytes, prepared from rabbit rib cartilage; test: Anti-collagenase action in rabbit chondrocytes (IL-1-induced collagenase production); type: cell-based; details: IL-1 30 ng/ml added, 48 hours, mean±SE, control with IL-1 21.9 ± 1.7, without IL-1 0.1 ± 0.1
Protocol: Chondrocytes, prepared from rabbit rib cartilage, were suspended in Dulbecco's MEM (DMEM) supplemented with 10% FCS, sown to 12-well plates, and cultured until a confluent state was reached. After the culture broth was removed, the cells were cultured for 48 hours in serum-free DMEM containing IL-1 (30 ng/ml) and the sample compound. The collagenase produced upon induction by IL-1 stimulation and secreted in the culture broth was activated by trypsinization; after a soybean trypsin inhibitor was added to inactivate the trypsin, activity was determined with type I collagen as the substrate. The values obtained are given in mean±SE in Table 3. The data were statistically analyzed by Student's t-test.

melting point: 206 to 207 °C (dec.)
Structure (SMILES): CSc1oc(C(=O)O)c2c1-c1nc(-c3ccccc3)sc1CC2 [Example 25, 4,5-dihydro-8-methylthio-2-phenylfuro[3,4-e]benzothiazole-6-carboxylic acid]
Collagenase Activity (units/ml) ([1]; compound 10^−5 M): 1.8 ± 0.6 units/ml
Collagenase Activity (units/ml) ([1]; compound 10^−6 M): 11.0 ± 0.8 units/ml
